In ChEMBL document CHEMBL5728837, “Non-fused tricyclic compounds” (2021):

Assay: YAP Reporter Assay: HEK293T cells stably transfected with 8XTBD luciferase reporter and pRLTK in 384-well plates were treated with the test compounds, starting from 3 μM (final concentration in assay plate), 1:3 dilution, and 10 points in quadruplicates. Post 24-hr incubation with compounds at 37° C. and 5% CO2, cells were lysed and 8XTBD-driven firefly luciferase and control TK-driven renilla luciferase activities were measured using Promega Dual-Luciferase Reporter Assay System.Reagents: The reagents used for this study are: DMEM: Invitrogen #11960077, Dual-Glo Luciferase Assay System: Promega-E2980, Puromycin Dihydrochloride: Invitrogen-A1113803, 384-well plate: PerkinElmer-6007480, L-GLUTAMINE: Invitrogen-25030164, Hygromycin B: Invitrogen-10687010, and Penicillin-Streptomycin: Merk-TMS-AB2-CMedia: The media used for this assay were: Culture Medium: DMEM+1 ug/mL puromycin+200 ug/mL hygromycin (with 10% FBS+1 mM L-glutamine); and Assay Medium: DMEM (with 10% FBS+1 mM L-glutamine+1× P/S).Cell Plating: The appropriate media was warmed at 37° C. by water bath: Culture Medium, Assay Medium, 1*D-PBS, 0.05% trypsin-EDTA. The cells were trypsinized after removing all media, then washed with 1*sterile D-PBS and then with 2 ml 0.05% trypsin-EDTA. The cells were then incubated at RT for one minute. Then 10 ml/75 cm2 flask Assay Medium was added to each flask. Using a 10 ml pipette, the cells were then gently resuspended in the media, until the clumps completely disappeared. The cells were then transferred into 50 ml centrifuge tubes and were centrifuged at 800 rpm for 5 mins. The medium was removed and the cells were resuspended with Assay Medium. An aliquot of cells was used to count the cell density (cells/nil). The cell suspension was then diluted with Assay Medium to a concentration of 6×10^4 cells/ml. 50 ul cells suspension was then plated to 384-well plate (PerkinElmer-6007480), 3×10^3 cells/well and the cells were incubated in an incubator at 37° C., 5% CO2.Compound Treatment: In the afternoon (incubation of the plate with 3-4 hrs), the test compounds were added by Echo, starting from 3 uM (final concentration in the assay plate), 1:3 dilution, 10 points, quadruplicates. The plate was placed at 37° C., 5% CO2 incubator for 24 hrs.Detection: The Dual-Glo Luciferase Reagent was prepared by transferring the contents of one bottle of Dual-Glo Luciferase Buffer to one bottle of Dual-Glo Luciferase Substrate to create the Dual-Glo Luciferase Reagent. Mixing was performed by inversion until the substrate was thoroughly dissolved. After mixing, the reagent was aliquoted into 15 ml tubes. In the afternoon (24 hrs post compound treatment), the DMEM+ medium in the 384 well plates were aspirated by Microplate Washer.Measuring firefly luciferase activity: 20 ul Dual-Glo Luciferase Reagent was added to the 384-well plates. The plates were protected from light to prevent interference with the assay. The plates were shaken for 1 min followed centrifuging plates at 1000 rpm for 30 seconds. After waiting at least 10 minutes, the firefly luminescence was measured by Envision.Measuring renilla luciferase activity: 20 ul Stop-Glo Reagent was added to the 384-well plates. The plates were shaken for lmin and then centrifuged at 1000 rpm for 30 seconds. After waiting at least 10 minutes, the renilla luminescence was measured by Envision.

| Compound | IC50 (HEK-293T, 24 h) | IC50 |
| --- | --- | --- |
| O=C(O)Cn1cc(-c2ccccc2Nc2ccc(C(F)(F)F)cc2)cn1 | in the range around 0.55 µM | – |
| COc1ccc(Nc2ccc(C(F)(F)F)cc2)c(-c2nnn(CCO)n2)c1 | < 0.1 µM | – |
| FC(F)(F)Oc1ccc(Nc2ccccc2-c2nnn(Cc3ccccn3)n2)cc1 | in the range around 3 µM | – |
| C[C@H]([C@@H](C)O)n1nnc(-c2ccccc2Nc2ccc(C(F)(F)F)cc2)n1 | < 0.1 µM | – |
| OCCn1nnc(-c2cc(Br)ccc2Nc2ccc(C(F)(F)F)cc2)n1 | < 0.1 µM | – |
| FC(F)(F)c1ccc(Nc2ccccc2-c2nnn(Cc3ccncc3)n2)cc1 | in the range around 0.55 µM | – |
| OC1(Cn2nnc(-c3ccccc3Nc3ccc(C(F)(F)F)cc3)n2)CCCNC1 (stereo not given) | in the range around 0.55 µM | – |
| OCCn1nnc(-c2cccnc2Nc2ccc(OC(F)(F)F)cc2)n1 | in the range around 0.55 µM | – |
| OCCn1nnc(-c2ccccc2Nc2ccc(Br)cc2)n1 | in the range around 0.55 µM | – |
| C[C@H](O)[C@H](C)n1nnc(-c2ccccc2Nc2ccc(C(F)(F)F)cc2)n1 | < 0.1 µM | – |
| FC(F)(F)c1ccc(Nc2ccccc2-c2nnn(C3CCCOC3)n2)cc1 (stereo not given) | in the range around 0.55 µM | – |
| NCCn1cnc(-c2ccccc2Nc2ccc(C(F)(F)F)cc2)n1 | in the range around 0.55 µM | – |
| COC1CCCC1n1nnc(-c2ccccc2Nc2ccc(C(F)(F)F)cc2)n1 (stereo not given) | in the range around 0.55 µM | – |
| OCCn1nnc(-c2ccccc2Nc2cccc(Cl)c2)n1 | in the range around 3 µM | – |
| OCCn1nnc(-c2cc(C(F)F)ccc2Nc2ccc(C(F)(F)F)cc2)n1 | in the range around 0.55 µM | – |
| OCCn1nnc(-c2ccccc2Nc2cccc(C(F)(F)F)c2)n1 | in the range around 3 µM | in the range around 3 µM |
| O[C@H]1CCC[C@H]1n1nnc(-c2ccccc2Nc2ccc(C(F)(F)F)cc2)n1 | < 0.1 µM | – |
| CO[C@@H](C)[C@H](C)n1nnc(-c2ccccc2Nc2ccc(C(F)(F)F)cc2)n1 | < 0.1 µM | – |
| OCCCn1nnc(-c2ccccc2Nc2cccc(C(F)(F)F)c2)n1 | in the range around 0.55 µM | – |
| CCc1cccc(Nc2ccccc2-c2nnn(CCO)n2)c1 | in the range around 0.55 µM | – |
| Cc1ccc(Nc2ccc(C(F)(F)F)cc2)c(-c2nnn(CCO)n2)c1 | < 0.1 µM | – |
| OC1(Cn2nnc(-c3ccccc3Nc3ccc(C(F)(F)F)cc3)n2)CCNCC1 | in the range around 3 µM | – |
| FC(F)(F)c1ccc(Nc2ccccc2-c2nnn(C3COC3)n2)cc1 | < 0.1 µM | – |
| C[C@H](O)[C@@H](C)n1nnc(-c2ccccc2Nc2ccc(C(F)(F)F)cc2)n1 | < 0.1 µM | – |
| OCCn1nnc(-c2cc(C3CC3)ccc2Nc2ccc(C(F)(F)F)cc2)n1 | < 0.1 µM | – |

| Compound | IC50 (HEK-293T, 24 h) | IC50 |
| --- | --- | --- |
| OCCn1nnc(-c2c(F)cccc2Nc2ccc(C(F)(F)F)cc2)n1 | < 0.1 µM | – |
| FC(F)(F)c1ccc(Nc2ccccc2-c2nnn(C3CCOC3)n2)cc1 (stereo not given) | < 0.1 µM | – |
| OCCn1nnc(-c2cc(Cl)ccc2Nc2ccc(C(F)(F)F)cc2)n1 | < 0.1 µM | – |
| OCCn1nnc(-c2ccccc2Nc2ccc(Cl)cc2)n1 | in the range around 0.55 µM | – |
| OCCn1nnc(-c2ccccc2Nc2ccccc2F)n1 | in the range around 3 µM | – |
| CCOC(=O)Cn1cc(-c2ccccc2Nc2ccc(C(F)(F)F)cc2)cn1 | < 0.1 µM | – |
| CCc1ccc(Nc2ccccc2-c2nnn(CCO)n2)cc1 | in the range around 0.55 µM | – |
| FC(F)(F)c1ccc(Nc2ccccc2-c2nnn(C3CCNC3)n2)cc1 (stereo not given) | in the range around 0.55 µM | – |
| OCCn1nnc(-c2ccccc2Nc2cc(Cl)c(Cl)c(Cl)c2)n1 | in the range around 3 µM | – |
| OCCn1nnc(-c2ccccc2Nc2ccc(C(F)(F)F)c(Cl)c2)n1 | < 0.1 µM | – |
| CCOC(=O)Cn1nnc(-c2ccccc2Nc2ccc(F)cc2)n1 | in the range around 0.55 µM | – |
| CCOC(=O)Cn1cc(-c2ccccc2Nc2cccc(C(F)(F)F)c2)nn1 | in the range around 3 µM | – |
| CO[C@H](C)[C@H](C)n1nnc(-c2ccccc2Nc2ccc(C(F)(F)F)cc2)n1 | in the range around 0.55 µM | – |
| O[C@@H]1CNC[C@H]1n1nnc(-c2ccccc2Nc2ccc(C(F)(F)F)cc2)n1 | in the range around 0.55 µM | – |
| O[C@@H]1CCC[C@@H]1n1nnc(-c2ccccc2Nc2ccc(C(F)(F)F)cc2)n1 | in the range around 0.55 µM | – |
| OC1(Cn2nnc(-c3ccccc3Nc3ccc(C(F)(F)F)cc3)n2)CCOCC1 | in the range around 0.55 µM | – |
| OCCn1cnc(-c2ccccc2Nc2ccc(C(F)(F)F)cc2)c1 | in the range around 0.55 µM | – |
| FC(F)(F)c1ccc(Nc2ccccc2-c2nnn(C3CCOCC3)n2)cc1 | in the range around 0.55 µM | – |
| CC(=O)OC1(CN2N=C(c3ccccc3Nc3ccc(C(F)(F)F)cc3)NN2)CN(C(C)=O)C1 | in the range around 3 µM | – |
| OCCn1nnc(-c2ccccc2Nc2ccc(F)c(F)c2)n1 | in the range around 0.55 µM | – |
| O=C(Cn1nnc(-c2ccccc2Nc2ccc(C(F)(F)F)cc2)n1)N1CCCC1 | in the range around 0.55 µM | – |
| OC1(Cn2nnc(-c3ccccc3Nc3ccc(C(F)(F)F)cc3)n2)CCN(c2ccccc2)C1 (stereo not given) | in the range around 3 µM | – |
| CCOC(=O)Cn1ncc(-c2ccccc2Nc2ccc(C(F)(F)F)cc2)c1C | < 0.1 µM | – |
| OCCn1nnc(-c2ccccc2Nc2ccc(SC(F)F)cc2)n1 | in the range around 0.55 µM | – |

Other lines, results leading:

| IC50 (HEK-293T, 24 h) | IC50 | Compound |
| --- | --- | --- |
| in the range around 0.55 µM | – | FC(F)(F)c1ccc(Nc2ccccc2-c2nnn(CC3CCC3)n2)cc1 |
| in the range around 0.55 µM | – | O=C1NCC(Cn2nnc(-c3ccccc3Nc3ccc(C(F)(F)F)cc3)n2)O1 (stereo not given) |
| < 0.1 µM | – | CC(O)Cn1nnc(-c2ccccc2Nc2ccc(C(F)(F)F)cc2)n1 (stereo not given) |
| in the range around 0.55 µM | – | FC(F)(F)OCCn1nnc(-c2ccccc2Nc2ccc(C(F)(F)F)cc2)n1 |
| in the range around 0.55 µM | – | O=C(Cn1nnc(-c2ccccc2Nc2ccc(C(F)(F)F)cc2)n1)NO |
| < 0.1 µM | – | OC(Cn1nnc(-c2ccccc2Nc2ccc(C(F)(F)F)cc2)n1)C(F)(F)F (stereo not given) |
| in the range around 0.55 µM | – | NCCn1nnc(-c2ccccc2Nc2ccc(C(F)(F)F)cc2)n1 |
| < 0.1 µM | – | OC1(Cn2nnc(-c3ccccc3Nc3ccc(C(F)(F)F)cc3)n2)CCC1 |
| in the range around 0.55 µM | – | Cn1nnc(-c2ccccc2Nc2ccc(C(F)(F)F)cc2)n1 |
| < 0.1 µM | – | OC1(Cn2nnc(-c3ccccc3Nc3ccc(C(F)(F)F)cc3)n2)CCCC1 |
| in the range around 0.55 µM | – | OC1(Cn2nnc(-c3ccccc3Nc3ccc(C(F)(F)F)cc3)n2)CNC1 |
| in the range around 3 µM | – | CNCCCn1nnc(-c2ccccc2Nc2ccc(C(F)(F)F)cc2)n1 |
| in the range around 0.55 µM | – | NS(=O)(=O)Cn1nnc(-c2ccccc2Nc2ccc(C(F)(F)F)cc2)n1 |
| in the range around 0.55 µM | – | OCCn1nnc(-c2ccccc2Nc2ccc(SC(F)(F)F)cc2)n1 |
| in the range around 0.55 µM | – | CC(=O)NCCCn1nnc(-c2ccccc2Nc2ccc(C(F)(F)F)cc2)n1 |
| in the range around 0.55 µM | – | CN(C)CCn1nnc(-c2ccccc2Nc2ccc(C(F)(F)F)cc2)n1 |
| < 0.1 µM | – | OCCCn1nnc(-c2ccccc2Nc2ccc(C(F)(F)F)cc2)n1 |
| < 0.1 µM | – | OC1(Cn2nnc(-c3ccccc3Nc3ccc(C(F)(F)F)cc3)n2)CCOC1 (stereo not given) |

| IC50 (HEK-293T, 24 h) | IC50 | Compound |
| --- | --- | --- |
| in the range around 3 µM | – | CS(=O)(=O)NCCCn1nnc(-c2ccccc2Nc2ccc(C(F)(F)F)cc2)n1 |
| < 0.1 µM | – | OCC(O)Cn1nnc(-c2ccccc2Nc2ccc(C(F)(F)F)cc2)n1 (stereo not given) |
| < 0.1 µM | – | OCCn1nnc(-c2ccccc2Nc2ccc(OC(F)(F)F)cc2)n1 |
| < 0.1 µM | – | OC(Cn1nnc(-c2ccccc2Nc2ccc(C(F)(F)F)cc2)n1)C1CC1 (stereo not given) |
| in the range around 3 µM | – | CS(=O)(=O)NCCn1nnc(-c2ccccc2Nc2ccc(C(F)(F)F)cc2)n1 |
| < 0.1 µM | – | COCC(C)n1nnc(-c2ccccc2Nc2ccc(C(F)(F)F)cc2)n1 (stereo not given) |
| in the range around 0.55 µM | – | NCC(CO)n1nnc(-c2ccccc2Nc2ccc(C(F)(F)F)cc2)n1 (stereo not given) |
| in the range around 0.55 µM | – | FC(F)(F)c1ccc(Nc2ccccc2-c2nnn(Cc3ccccn3)n2)cc1 |
| in the range around 0.55 µM | – | FC(F)OCCn1nnc(-c2ccccc2Nc2ccc(C(F)(F)F)cc2)n1 |
| < 0.1 µM | – | OC1(Cn2nnc(-c3ccccc3Nc3ccc(C(F)(F)F)cc3)n2)CSC1 |
| < 0.1 µM | – | OC1(Cn2nnc(-c3ccccc3Nc3ccc(C(F)(F)F)cc3)n2)COC1 |
| in the range around 0.55 µM | – | OC1(Cn2nnc(-c3ccccc3Nc3ccc(C(F)(F)F)cc3)n2)CCNC1 (stereo not given) |
| in the range around 0.55 µM | – | CC(C)C(=O)Cn1nnc(-c2ccccc2Nc2ccc(C(F)(F)F)cc2)n1 |
| in the range around 0.55 µM | – | FCCCn1nnc(-c2ccccc2Nc2ccc(C(F)(F)F)cc2)n1 |
| in the range around 0.55 µM | – | OCCn1nnc(-c2cc(C(F)(F)F)ccc2Nc2ccc(C(F)(F)F)cc2)n1 |
| < 0.1 µM | – | CC(C)(O)Cn1nnc(-c2ccccc2Nc2ccc(C(F)(F)F)cc2)n1 |
| in the range around 0.55 µM | – | OCCn1nnc(-c2cc(OC(F)(F)F)ccc2Nc2ccc(C(F)(F)F)cc2)n1 |
